From patent US20100137429A1, “COMPOSITION FOR T[…] TRANSMUCOSAL ADMINISTRATION” (FUJIMOTO CO., LTD., priority 2007, published 2010)
Where a name gives a salt, the structure may show the parent alone. Read-outs that look alike come from different tables or passages of the source.

How the values were obtained:
[1] = Test Example 1: plasma level after single intravenous, subcutaneous and oral administration; assay type: in vivo, male SD rats; conditions: for bioavailability / Cmax / Tmax / AUC: rat, plasma, fasted male SD rats; for bioavailability: read-out: F (bioavailability); for AUC: trapezoidal method
Method: 0.5 mg/kg of the (−) isomer of the present compound (hydrochloride) (1 mL/kg of 0.5 mg/mL aqueous solution in physiological saline) was administered to the tail vein of each of male SD rats fasted since the previous day, and 5 minutes, 10 minutes, 20 minutes, 30 minutes, 45 minutes, 1 hour, 1.5 hours, 2 hours, 3 hours, 4 hours, and 6 hours after administration, whole blood was collected from the abdominal aorta.
(§1) 1 mg/kg of the (−) isomer of the present compound (hydrochloride) (5 mL/kg of 0.2 mg/mL aqueous solution) was administered subcutaneously to the back of the neck of each of male SD rats fasted since the previous day, and 5 minutes, 10 minutes, 20 minutes, 30 minutes, 1 hour, 1.5 hours, 2 hours, 3 hours, 4 hours, 6 hours, 8 hours and 10 hours after administration, whole blood was collected from the abdominal aorta.
as §1, with “10 mg/kg” for “1 mg/kg”, “(hydrochloride) (10” for “(hydrochloride) (5”, “of 1” for “of 0.2”, “administered forcedly orally” for “administered subcutaneously”, “to” for “to the back of the neck of each of”
The blood collected from each rat was transferred to a blood collecting tube containing 2Na EDTA, then sufficiently mixed by turning the tube upside down, and then centrifuged at 3,000 rpm for 10 minutes, and the obtained plasma was recovered. The plasma was freeze-preserved at −20° C. until analysis. The plasma level of the compound was measured by high performance liquid chromatography (HPLC). As a pharmacokinetic parameter, AUCO-t (area under the blood level-time curve, hereinafter referred to as “AUC”) was calculated by a trapezoidal method, and Cmax (maximum blood concentration) and tmax (time-to-maximum blood concentration) were determined from actual measurement values.

[2] = Test Example 4: plasma and brain homogenate concentrations after oral and intraoral administration; assay type: in vivo, male SD rats; conditions: rats
Method: The (−) isomer of the present compound (hydrochloride) was administered forcedly orally in a dose of 10 mg/kg (10 mL/kg of 1 mg/mL aqueous solution) to fasted male SD rats, and 5, 15, 30, 60 and 120 minutes after administration, whole blood was collected from the abdominal aorta.
The (−) isomer of the present compound (hydrochloride) was dropped in a dose of 1 mg/kg (0.1 mL/kg of 10 mg/mL aqueous solution) into the oral cavity of each fasted male SD rat anesthetized under ether. In the case of the powder preparation, the preparation which had been weighed so as to be in a dose of 1 mg/kg was placed beneath the tongue of each rat under anesthesia. In either case, the rats were left for 1 minute under anesthesia and then returned to cages, and 5, 15, 30, 60 and 120 minutes after administration, whole blood was collected from the abdominal aorta.
The blood collected from each rat was treated in the same manner as in Test Example 1. After blood collection, blood in the body of each rat was perfused with refrigerated physiological saline, and the cerebrum was excised therefrom. The cerebrum was cut thin with a knife and homogenized in 5 mL physiological saline added per gram of the tissues. 0.5 mL acetonitrile was added to 0.5 mL of the brain homogenate which was then stirred by means of a test tube mixer and centrifuged at 10,000 rpm for 5 minutes, to give a supernatant.
The concentrations of the compound in the plasma and in the brain homogenate were measured by LC/MS/MS. Simultaneously, the metabolites were quantitatively determined by using metabolite standards.

[3] = intraoral 1 mg/kg vs oral 10 mg/kg

In the case of `CCCNC(CCC)Cc1cc2ccccc2o1` (single isomer, unassigned; (-)) [(−) isomer of the present compound (hydrochloride), (−)-1-(benzofuran-2-yl)-2-propylaminopentane], the “blood level in the oral administration” value ([1]; oral 10 mg/kg, rats) is reported as “low as compared with the given dose”, the bioavailability ([1]; sc, subcutaneous, 1 mg/kg) is reported as 144% and the bioavailability ([1]; oral, 10 mg/kg) is reported as 4.1%. It also gave a Cmax ([1]; sc, subcutaneous, 1 mg/kg) of 135 ng/mL, a Tmax ([1]; sc, subcutaneous, 1 mg/kg) of 10.2 min and an AUC ([1]; sc, subcutaneous, 1 mg/kg) of 231 ng·h/mL. The Cmax ([1]; intravenous, 0.5 mg/kg) was 94.1 ng/mL, the Tmax ([1]; intravenous, 0.5 mg/kg) was 4.8 min and the AUC ([1]; intravenous, 0.5 mg/kg) was 80 ng·h/mL. For the same molecule, the Cmax ([1]; oral, 10 mg/kg) was 86.9 ng/mL, the Tmax ([1]; oral, 10 mg/kg) was 10.2 min and the AUC ([1]; oral, 10 mg/kg) was 65.4 ng·h/mL. For the same molecule, the “blood concentration in intraoral administration compared with oral administration” value ([2]; intraoral 1 mg/kg (aqueous solution, powder preparation) vs oral 10 mg/kg) was “equal to or higher than that in the oral administration”, the “metabolites in intraoral administration compared with oral administration” value [2, 3] was “lower metabolites” and the “transferability of the compound to the brain (concentration in the brain homogenate)” value [2, 3] was “significantly higher than in the oral administration”.
